The nature of data set [1]: Net charge of peptide at pH 7.5 in physiological solution. The class given is physicochemical. As to conditions: per peptide, pH 7.5, physiological solution.
A short description of data set [2]: Persistence length of tapes, ribbons and fibrils in water. The data set is classed as physicochemical. An excerpt: The tapes, ribbons, fibrils and fibres are increasingly more rigid structures.
Data set [3] is described as follows: Isotropic to nematic transition concentration. The data set is classed as physicochemical. As to conditions: ribbons of P11-1, fibrils of P11-2. The protocol:
We have also shown that above a certain peptide concentration cI/N (isotropic to nematic transition concentration) the semi-rigid ribbons, fibrils and fibres can align and thus transform their initially isotropic solution into a nematic liquid crystalline solution. The transition of the solution to the nematic liquid crystalline state happens at lower concentrations for more rigid polymers. For example, the nematic transition for solutions of ribbons of P11-1 peptide occurs at cI/N≈13 mM, whilst the nematic transition for solutions of the much more rigid fibrils of P11-2 peptide occurs at cI/N≈0.9 mM.

A short description of data set [4]: Geometrical sizes from X-ray diffraction data and molecular modelling. The class given is physicochemical. The source says: FIG. 2. Model of hierarchical self-assembly of beta-sheet forming peptides. Each peptide in beta-strand conformation, is depicted as a chiral rod-like unit (a). Local arrangements (c-f) and the corresponding global equilibrium conformations (c′-f′) for the hierarchical self-assembling structures formed in solutions of chiral molecules (a), which have complementary donor and acceptor groups, shown by arrows, via which they interact and align to form tapes (c). The black and the white surfaces of the rod (a) are reflected in the sides of the helical tape (c) which is chosen to curl towards the black side (c′). The outer sides of the twisted ribbon (d), of the fibril (e) and of the fibre (f) are all white. One of the fibrils in the fibre (f′) is drawn with darker shade for clarity. (e) & (f) show the front views of the edges of fibrils and fibres, respectively. Geometrical sizes (the numbers in parentheses show the values of the corresponding geometric sizes for P11-I and P11-II peptides, based on X-ray diffraction data and molecular modelling): inter-rod separation in a beta-sheet tape b2 (b2=0.47 nm); tape width, equal to the length of a rod, b1 (b1=4 nm); inter-ribbon distance in the fibril, α (α=1.6-2 nm for P11-I, and α=2-2.4 nm for P11-II).

A short description of data set [5]: Fibril dimensions measured from TEM images. The class given is physicochemical. As to conditions: for L, fibril contour length / h, twist pitch / l, fibril persistence length / wn, width of the fibril at its narrowest point / ww, width of the fibril at its widest point: physiological conditions, TEM. The protocol:
For, electron microscopy, samples were examined using a Phillips CM10 TEM at 80-100 kV accelerating voltage. Gels were diluted to a peptide concentration of 20 μM seconds before application to a glow-discharged, carbon-coated, copper grid followed by coating with uranyl acetate solution (4% w/v in water).
The dimensions of the fibrils formed by these peptides are given in Table 2, and TEM images from which these measurements were obtained are shown in FIGS. 6A-6D. These dimensions are—the length of a peptide fibril (contour length, L), the length of a peptide fibril before it curves (persistence length, l), the length of a full twist of a peptide fibril (twist pitch, h) the width of a fibril at its widest point (ww) and the width of the fibril at its narrowest point as it twists (wn).

The subject of another data set is L929 murine fibroblasts. Description: Contact cytotoxicity testing. The data set is classed as cell-based. As to conditions: peptide gels in culture with L929 fibroblasts. The source says: L929 murine fibroblasts growing in contact with the negative collagen control are shown in FIG. 5B and the positive control of cyanoacrylate adhesive is shown in FIG. 5A.
For another data set, the system named is L929 fibroblast cells. Description: Cell density in peptide gels by ATPLite assay. The data set is classed as cell-based, murine. An excerpt: After establishing that the peptides tested were not cytotoxic when placed in culture with L929 fibroblast cells, the next stage was assessing the suitability of the collagen peptide gels for use in supporting cell proliferation.
For orientation: In ATP-based viability assays light output follows the ATP content of the culture.

Data set [6] in a line: Self-assembly and gel formation in physiological solution / cell media. The data set is classed as physicochemical. An excerpt: A large number (dozens) of systematically varied peptides (typically 7-30 residues long) have been studied for soluble polymer and gel formation in cell media. […] Only peptides with a approximate net +2 or −2 charge per peptide at physiological pH=7.5, were able to form soluble polymers and gel cell media (The amount of net charge necessary per peptide to keep its polymers soluble in cell media will vary depending on the overall surface properties and solubility of the peptide tapes it forms). […] These peptides retained a predominantly monomeric state and their solutions in cell media were fluids up to around 40 mg/ml peptide concentration.
The rationally designed peptide P11-8 (Tables 1A and 1C) was dissolved in 145 mM NaCl, pH˜7.5 aqueous solution (the ionic strength and pH values of the solution were similar to those present in cell culture medium) or it was added directly in cell culture medium.
The fibrils of P11-8 entwined partly with each other forming a three dimensional network and turned the peptide solution in cell media into a homogeneous self-supporting gel at peptide concentration higher than 15 mg/ml.
The gel could be temporarily broken by mechanical agitation. The time it took the gel to reform depended on the peptide concentration, ranging from seconds for a 35 mg/ml peptide gel, to hours for a 15 mg/ml peptide gel.

Data set [7] relates to tissue surrounding the injection site. Further details: species or system mice. As to conditions: mouse, in vivo. An excerpt:
Injection of P11-3 and P11-8 peptide solutions in cell media in mice has shown no effect of the presence of the peptide in the tissue surrounding the injection site as judged by histology after two and eight weeks following the peptide injection.

A short description of data set [8]: Self-assembly and gel formation in physiological solution / cell media. The data set is classed as physicochemical. This is another data set of the same source.
Where [9] appears, read: 145 mM NaCl, pH~7.5 or cell culture medium.

Where a SMILES comes first, the peptide text is derived from it. [ ]: non-standard residue; d: D form. Orn = NCCC[C@H](N)C(=O)O

Turning to “QQR^+FQWQFE^-QQ (QQRFQWQFEQQ; self assembling peptide P11-2)”, the “Net charge at pH 7.5” value in data set [1] was found to be 0. Further, in data set [2], the “persistence length of fibrils” value is recorded as 20-70 μm and the “persistence length of ribbons” value was determined as 1 μm. The “cI/N, isotropic to nematic transition concentration” value in [3] is “≈ 0.9 mM”. Also, in [4], the “inter-ribbon distance in the fibril, α” value is given as 2-2.4 nm; the “inter-rod separation in a beta-sheet tape b2” value amounted to 0.47 nm; the “tape width b1” value amounted to 4 nm.
As to `CC(=O)N[C@@H](CC(N)=O)C(=O)N[C@@H](CC(N)=O)C(=O)N[C@@H](CCCNC(=N)N)C(=O)N[C@@H](Cc1ccccc1)C(=O)N[C@@H](CCC(=O)O)C(=O)N[C@@H](Cc1c[nH]c2ccccc12)C(=O)N[C@@H](CCC(=O)O)C(=O)N[C@@H](Cc1ccccc1)C(=O)N[C@@H](CCC(=O)O)C(=O)N[C@@H](CC(N)=O)C(=O)N[C@@H](CC(N)=O)C(N)=O` [Peptide P11-15, CH3CO-N-N-R-F-E-W-E-F-E-N-N-NH2] (Ac-NNRFEWEFENN-NH2), the “Net charge at pH 7.5” value in data set [1] was −2. In [5], the “L, fibril contour length” value is on record as 1.3-4 μm; the “h, twist pitch” value was 118-220 nm; the “l, fibril persistence length” value is given as 0.3-1.2 μm; the “wn, width of the fibril at its narrowest point” value (shortened to “wn, width of the fibril”) was 5-7 nm. Besides, the “ww, width of the fibril at its widest point” value (shortened to “ww, width of the fibril”) in [5] is reported as 7-10 nm. Besides, in the data set with L929 murine fibroblasts, the contact cytotoxicity entry is “growing in contact with and onto the peptide gel matrix”. Besides, the “support of cell growth” value in the data set with L929 fibroblast cells (L929 cells in peptide gels) was “moderately successful in supporting cell growth”. Also, the “macroscopic appearance of gel” value with L929 fibroblast cells (at end of cell culture experiment) is given as “little sign of macroscopic degradation”.
Take `CC(=O)N[C@@H](CC(N)=O)C(=O)N[C@@H](CC(N)=O)C(=O)N[C@@H](CCCNC(=N)N)C(=O)N[C@@H](Cc1ccccc1)C(=O)N[C@@H](CCCN)C(=O)N[C@@H](Cc1c[nH]c2ccccc12)C(=O)N[C@@H](CCCN)C(=O)N[C@@H](Cc1ccccc1)C(=O)N[C@@H](CCC(=O)O)C(=O)N[C@@H](CC(N)=O)C(=O)N[C@@H](CC(N)=O)C(N)=O` [Peptide P11-16, CH3CO-N-N-R-F-O-W-O-F-E-N-N-NH2] (Ac-NNRF[Orn]W[Orn]FENN-NH2): the “Net charge at pH 7.5” value in [1] is on record as “+2”. In addition, in [5], the “L, fibril contour length” value is listed as 1.2-3.9 μm; the “h, twist pitch” value was 109-220 nm; the “l, fibril persistence length” value is reported as 0.5-1.6 μm; the “wn, width of the fibril” value is given as 5-10 nm. In addition, the “ww, width of the fibril” value in data set [5] was 11-20 nm. The contact cytotoxicity result with L929 murine fibroblasts is “growing in contact with and onto the peptide gel matrix”.
Turning to `CC(=O)N[C@@H](CCC(N)=O)C(=O)N[C@@H](CCC(N)=O)C(=O)N[C@@H](CCCNC(=N)N)C(=O)N[C@@H](Cc1ccccc1)C(=O)N[C@@H](CCCN)C(=O)N[C@@H](Cc1c[nH]c2ccccc12)C(=O)N[C@@H](CCCN)C(=O)N[C@@H](Cc1ccccc1)C(=O)N[C@@H](CCC(=O)O)C(=O)N[C@@H](CCC(N)=O)C(=O)N[C@@H](CCC(N)=O)C(N)=O` [Peptide P11-8, CH3CO-Q-Q-R-F-O-W-O-F-E-Q-Q-NH2] (Ac-QQRF[Orn]W[Orn]FEQQ-NH2), in data set [1], the “Net charge at pH 7.5” value is recorded as “+2”. In addition, in [5] (setting [9]), the fibril full pitch was 200-300 nm, the fibril length entry is “several micrometers”, the fibril narrow width is given as 4-5 nm and the fibril wide width is given as 12-15 nm. In [5], the “L, fibril contour length” value is 1.2-6.3 μm; the “h, twist pitch” value is recorded as 140-320 nm; the “l, fibril persistence length” value is reported as 0.8-2.5 μm; the “wn, width of the fibril” value is on record as 4-11 nm. Also, the “ww, width of the fibril” value in data set [5] was 13-19 nm. Further, the “time for gel to reform after mechanical agitation” value in [6] (15 mg/ml peptide gel) is recorded as “hours”. The “time for gel to reform after mechanical agitation” value in data set [6] (35 mg/ml peptide gel) is listed as “seconds”. Moreover, in [6] (cell media), the “fibrils and gels after sterilisation using an autoclave” value is on record as “reform after sterilisation using an autoclave”; the “peptide concentration for homogeneous self-supporting gel” value was “higher than 15 mg/ml”. Further, the gel stability entry in data set [6] (room temperature, cell media) is recorded as “stable for at least several weeks”. For the same molecule, in [7], the “effect on tissue surrounding the injection site by histology” value is reported as “no effect”. For the same molecule, the “conformation / solution state in water” value in [8] (pH<7 in water) is on record as “monomeric random coil conformation”. Besides, the “self-assembly in low ionic strength media” value in data set [8] (pH=7.5, peptide concentrations up to 10 mg/ml) is listed as “does not self-assemble”.

These data come from patent publication US9630991B2, “βsheet tapes ribbons in tissue engineering” (University of Leeds, priority 2002, dated 2017).
